In brackets after ≈: the same amount, converted by molar mass. Where a SMILES comes first, the peptide text is derived from it.
Tests used:
E. coli ESBL BAA-198 [1] = format: cell-based, Escherichia coli
Protocol: (§1) In order to determine the MIC values of the peptides, growth and inhibition of various bacteria were monitored after treatment with the peptides of the invention (Table 6).
(§2) E. coli bacteria were cultured with or without OMN6 in increasing concentrations of 0.8-200 μM and with or without Fetal Bovine Serum 10% for 17-20 hours. The growth of the bacteria was continuously monitored via spectrophotometry at 600 nm. As bacterial growth progresses, OD600 nm values rise, and where the growth is inhibited OD600 nm values remain constant.
(§3) The experimental system and parameters described here were used to determine the MIC values of OMN2, OMN6, OMN7 and OMN11 on various bacteria strains (Table 7 and Table 8).

E. coli Sens. 25922 = format: cell-based, Escherichia coli
Protocol: as §1, §2, §3

E. coli ESBL BAA-198 [2] = format: cell-based, Escherichia coli; remark: listed apart in the source
Protocol: In order to determine the Minimal Bactericidal Concentration (MBC) values of the peptides, colony formation of various bacteria strains was monitored and determined after treatment with the peptides of the invention. Multi-Drug Resistant A. baumannii bacteria were cultured with or without OMN6 in increasing concentrations, as is detailed in FIG. 6 and Example 6. Immediately afterwards, samples of each experimental group were diluted to 1×10^4 to 1×10^6 as necessary, and further, the samples were plated on appropriate medium-agar plates. All the plates were incubated at 37° C. for 24-48 hours. Colonies were counted and CFU/ml in the original sample, prior to plating, were calculated and determined. An example of the plates, after incubation, is presented in FIG. 7 where the plate on the left side of the image is the CTRL sample treated with DDW and in the right side of the image increasing concentrations of OMN6 are presented, as specified therein.
The experimental system and parameters described here were used to determine the MBC values of OMN2, OMN6, OMN7 and OMN11 on various bacteria strains with and without the supplementation of 10% FBS (Table 6 and Table 8).

[3] = Preliminary topical safety in mice; format: in vivo; details: topical single dose 0.5-4 mg/kg
Protocol: The antimicrobial peptide OMN6 was administered to mice in order to evaluate and quantify whether toxic effects are present. OMN6 peptide (C195H332N56O49S3) was administered topically according to concentrations and groups detailed in Table 9.
Mice approved for this experiment: Outbred Hsd:ICR (CD-1®)—weight 18-20 g. Saline solution (0.9% NaCl) as sham treatment or OMN6 dissolved in saline were administered directly onto the skin of mice after the hair was shaved. A total volume of 16 μl was administered to each animal.
In this experiment, the peptide OMN6 of the invention was administered in a single dose, at four different concentrations (mg/kg). Mortality of mice in all experiment groups was monitored in comparison to a Sham (CTRL) group. Food and water consumption, post treatment, was monitored by individual weight measurements once every two days. At the end of the experiment, blood was taken from all animals and 200 μl of blood was separated and plasma was analyzed for erythrocyte hemolysis. • Experimental Map: • 1. Mice (six per group) were given a single-dose administration on day 1, according to group specification (Table 9). Food and water consumption (weight analysis) along with mortality of mice in all groups were monitored for four days post treatment. At the end of the five day trial, the animals were sacrificed. • 2. Free Hgb (hemoglobin) assay was performed on day 5, on all samples from all groups, for erythrocyte hemolysis analysis. • 3. Water/food availability, temperature and other conditions remained unchanged between the groups for the entire five day trial. • 4. Erythrocyte hemolysis analysis was performed via hemoglobin assay kit (Sigma-Aldrich, 3 Plaut St. Rehovot, Israel).

[4] = Preliminary IP safety in mice; format: in vivo
Protocol: IP administration of OMN6: OMN6 was administered IP to mice in order to evaluate and quantitate any toxic effects if present. OMN6 peptide was administered via intraperitoneal injection according to concentrations and groups detailed in Table 10.
Mice used in this experiment: Outbred Hsd: ICR (CD-1®)—weight 18-20 g. Saline solution (0.9% NaCl) supplemented with 4 mM C2H3NaO2 (sodium acetate) as sham treatment, or OMN6 dissolved in saline were administered as specified in […] A total volume of 100 μl was administered to each animal.
Mortality of mice in experiment group was monitored in comparison to a Sham (CTRL) group. Food and water consumption, post treatment, was monitored by individual weight measurements once every two days. At the end of the experiment, blood was taken from all animals, and a 200 μl volume of complete blood was separated and plasma was analyzed for erythrocyte hemolysis.
Experimental Map: • 1. Mice (six per group) were given a single-dose administration on day 1, according to group specification (Table 10). Food and water consumption (weight analysis) along with mortality of mice in all groups were monitored for 3 days post treatment. At the end of the four day trial, the animals were sacrificed. • 2. Free Hgb (hemoglobin) assay was performed on day 4, on all samples from all groups, for erythrocyte hemolysis analysis. • 3. Water/food availability, temperature and other conditions remained unchanged between the groups for the entire four day trial. • 4. The Erythrocyte hemolysis analysis was performed via hemoglobin assay kit (Sigma-Aldrich, 3 Plaut St. Rehovot, Israel).

[5] = IP single dose 16 mg/kg, four-day experiment

## CC[C@H](C)[C@H](NC(=O)CNC(=O)[C@H](CC(=O)O)NC(=O)[C@H](CCCNC(=N)N)NC(=O)[C@@H](NC(=O)[C@H](CC(N)=O)NC(=O)[C@H](CCC(N)=O)NC(=O)CNC(=O)[C@@H](NC(=O)[C@H](CCCCN)NC(=O)[C@H](CCC(=O)O)NC(=O)[C@@H](NC(=O)[C@H](CCCCN)NC(=O)[C@H](CCCCN)NC(=O)[C@H](Cc1ccccc1)NC(=O)[C@H](CC(C)C)NC(=O)[C@H](CCCCN)NC(=O)[C@H](Cc1c[nH]c2ccccc12)NC(=O)[C@H](CCCCN)NC(=O)[C@H](CS)NC(=O)[C@@H](N)CCSC)[C@@H](C)CC)C(C)C)[C@@H](C)CC)C(=O)N[C@H](C(=O)N[C@@H](CCCCN)C(=O)N[C@@H](C)C(=O)NCC(=O)N1CCC[C@H]1C(=O)N[C@@H](C)C(=O)N[C@H](C(=O)N[C@@H](C)C(=O)N[C@H](C(=O)N[C@H](C(=O)NCC(=O)N[C@@H](CCC(N)=O)C(=O)N[C@@H](C)C(=O)N[C@H](C(=O)N[C@@H](CCC(N)=O)C(=O)N[C@H](C(=O)N[C@@H](C)C(=O)N[C@@H](CCCCN)C(=O)N[C@@H](CS)C(N)=O)[C@@H](C)CC)[C@@H](C)O)C(C)C)C(C)C)C(C)C)[C@@H](C)CC [OMN6] (H-MCKWKLFKKIEKVGQNIRDGIIKAGPAVAVVGQATQIAKC-NH2; N-terminus and C-terminus assumed)
E. coli ESBL BAA-198 [1]
  MIC: 5 µM (≈ 21.7 µg/mL)
E. coli Sens. 25922; Sens. 25922
  MIC value: 6.25 µM (≈ 27.1 µg/mL)
E. coli Sens. 25922; Sens. 25922, 17 h
  Minimal Inhibitory Conc. (MIC): 12.5 µM
E. coli ESBL BAA-198 [2]
  MBC: 5 µM (≈ 21.7 µg/mL)
[3]; 5-day experiment
  Clinical signs (diarrhea, bloody diarrhea, stand-on-end hair, apathy or restlessness): not observed
  Mortality: not observed
  Toxic or otherwise adverse effects: does not exert any toxic or otherwise adverse effects
  Weight-loss: not observed
[3]; day 5
  Hemolysis of erythrocytes (Free Hgb assay): No evidence of hemolysis
[4]; IP single dose 16 mg/kg (data not shown)
  Histological analysis: No evidence of pathological changes or aberrations
[4]; IP single dose 16 mg/kg, day 4
  Hemolysis of erythrocytes (Free Hgb assay): No evidence of hemolysis
[4]; [5]
  Clinical signs (diarrhea, bloody diarrhea, stand-on-end hair, apathy or restlessness): not observed
  Mortality: not observed
  Toxic or otherwise adverse effects: does not exert any toxic or otherwise adverse effects
  Weight-loss: not observed
